# PubChem BioAssay AID330 (DTP/NCI, 2004)
# Several values for one entry are separate records, joined by “and”; a condition that tells them apart may be missing. Equal entries are not always repeated. Inconclusive results and toxic doses are left out. Numbered stars: 1 amine (or outer) side, 2 acyl side, 3 side chain; on linkers, the order of the positions; unused ones are H or OH. Bridge positions count the residues as written; N and C are the ends. Square brackets hold non-standard residues; d marks the D form. Peptide text beside a SMILES is read from it. I, II: the chains in the order shown. * marks the point of attachment. ξ: configuration not given here. Quinaldoyl(3-OH,6-OMe) = COc1ccc2nc(C(=O)*)c(O)cc2c1; X12 = CCC(=O)OC1CC=NN([*:1])C1C(=O)[*:2]; X8 = CC(=O)OC1CC=NN([*:1])C1C(=O)[*:2]; ξNMeVal(3-OH) = CNC(C(=O)O)C(C)(C)O; Sar = CNCC(=O)O
# System: P388 leukemia ip, CD2F1 mice, survival T/C
# Assay: NCI In Vivo Anticancer Drug Screen. Data for tumor model P388 Leukemia (intraperitoneal) in CD2F1 (CDF1) mice
# Details: endpoint: median survival time, higher = longer survival
# How it was run: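 Mice carrying the transplanted tumor received test compound or vehicle. Survival was recorded in each group, and the value is the treated-group measurement divided by that of the vehicle-treated control group.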
# [1] = dose: 100.0 mg/kg/injection, schedule: Q01DX009 (ip), vehicle: Klucel (hydroxypropylcellulose) (HPC)
# [2] = dose: 200.0 mg/kg/injection, schedule: Q01DX009 (ip), vehicle: Klucel (hydroxypropylcellulose) (HPC)
# [3] = dose: 25.0 mg/kg/injection, schedule: Q01DX009 (ip), vehicle: Klucel (hydroxypropylcellulose) (HPC)
# [4] = dose: 50.0 mg/kg/injection, schedule: Q01DX009 (ip), vehicle: Klucel (hydroxypropylcellulose) (HPC)
# [5] = dose: 12.5 mg/kg/injection, schedule: Q01DX009 (ip), vehicle: saline
# [6] = dose: 25.0 mg/kg/injection, schedule: Q01DX009 (ip), vehicle: saline
# [7] = dose: 50.0 mg/kg/injection, schedule: Q01DX009 (ip), vehicle: saline with Tween-80
# [8] = dose: 50.0 mg/kg/injection, schedule: Q01DX009 (ip), vehicle: saline
# [9] = dose: 100.0 mg/kg/injection, schedule: Q01DX009 (ip), vehicle: saline with Tween-80
# [10] = dose: 200.0 mg/kg/injection, schedule: Q01DX009 (ip), vehicle: saline with Tween-80
# [11] = dose: 30.0 mg/kg/injection, schedule: Q01DX005 (ip), vehicle: Klucel (hydroxypropylcellulose) (HPC)
# [12] = dose: 60.0 mg/kg/injection, schedule: Q01DX005 (ip), vehicle: saline with Tween-80
# [13] = dose: 120.0 mg/kg/injection, schedule: Q01DX005 (ip), vehicle: saline with Tween-80
# [14] = dose: 240.0 mg/kg/injection, schedule: Q01DX005 (ip), vehicle: saline with Tween-80
# [15] = dose: 100.0 mg/kg/injection, schedule: Q01DX001 (ip), vehicle: saline with Tween-80
# [16] = dose: 200.0 mg/kg/injection, schedule: Q01DX001 (ip), vehicle: saline with Tween-80
# [17] = dose: 400.0 mg/kg/injection, schedule: Q01DX001 (ip), vehicle: saline with Tween-80
# [18] = dose: 100.0 mg/kg/injection, schedule: Q04DX003 (ip), vehicle: saline with Tween-80
# [19] = dose: 200.0 mg/kg/injection, schedule: Q04DX003 (ip), vehicle: saline with Tween-80
# [20] = dose: 50.0 mg/kg/injection, schedule: Q01DX005 (ip), vehicle: saline with Tween-80
structure (smiles),measurement,setting,value
ClC(c1ccccc1)C1(Cl)C=c2ccccc2=C1 (stereo unspecified),T/C,[1],109 % of control
same,T/C,"dose: 100.0 mg/kg/injection, schedule: Q04DX003 (ip), vehicle: Klucel (hydroxypropylcellulose) (HPC)",100 % of control
same,T/C,[2],109 % of control
same,T/C,"dose: 200.0 mg/kg/injection, schedule: Q04DX003 (ip), vehicle: Klucel (hydroxypropylcellulose) (HPC)",104 % of control
same,T/C,"dose: 400.0 mg/kg/injection, schedule: Q01DX009 (ip), vehicle: Klucel (hydroxypropylcellulose) (HPC)",113 % of control
same,T/C,"dose: 400.0 mg/kg/injection, schedule: Q04DX003 (ip), vehicle: Klucel (hydroxypropylcellulose) (HPC)",109 % of control
CC[C@@]1(C(N)=O)CC2C=CC1C2 (stereo partly specified),T/C,"dose: 50.0 mg/kg/injection, schedule: Q01DX005 (ip), vehicle: Klucel (hydroxypropylcellulose) (HPC)",94 % of control
same,T/C,"dose: 100.0 mg/kg/injection, schedule: Q01DX005 (ip), vehicle: Klucel (hydroxypropylcellulose) (HPC)",90 % of control
same,T/C,"dose: 200.0 mg/kg/injection, schedule: Q01DX005 (ip), vehicle: Klucel (hydroxypropylcellulose) (HPC)",96 % of control
Cc1ccc(C(=O)N/N=C/C(=O)O)cc1,T/C,"dose: 12.5 mg/kg/injection, schedule: Q01DX009 (ip), vehicle: Klucel (hydroxypropylcellulose) (HPC)",94 % of control
same,T/C,[3],95 % of control
same,T/C,[4],94 % of control
same,T/C,[1],88 % of control
same,T/C,[2],88 % of control
O=c1oc2cc(N=Cc3ccccc3Cl)ccc2c2ccccc12,T/C,"dose: 6.25 mg/kg/injection, schedule: Q01DX009 (ip), vehicle: saline",90 % of control
same,T/C,[5],90 % of control
same,T/C,[6],91 % of control
same,T/C,[7],98 % of control
same,T/C,[8],91 % of control
same,T/C,[9],114 % of control
same,T/C,[10],113 % of control
same,T/C,"dose: 400.0 mg/kg/injection, schedule: Q01DX009 (ip), vehicle: saline with Tween-80",87 % of control
CN(C)CN1C(=O)S/C(=C2\C(=O)N(CN(C)C)c3ccccc32)C1=O,T/C,[11],118 % of control
same,T/C,"dose: 60.0 mg/kg/injection, schedule: Q01DX005 (ip), vehicle: Klucel (hydroxypropylcellulose) (HPC)",120 % of control and 121 % of control
same,T/C,"dose: 120.0 mg/kg/injection, schedule: Q01DX005 (ip), vehicle: Klucel (hydroxypropylcellulose) (HPC)",113 % of control
same,T/C,"dose: 240.0 mg/kg/injection, schedule: Q01DX005 (ip), vehicle: Klucel (hydroxypropylcellulose) (HPC)",120 % of control
Oc1nc(-c2ccccc2)sc1-c1ccc(Cl)cc1,T/C,"dose: 12.5 mg/kg/injection, schedule: Q01DX009 (ip), vehicle: saline with Tween-80",93 % of control
same,T/C,"dose: 25.0 mg/kg/injection, schedule: Q01DX009 (ip), vehicle: saline with Tween-80",86 % of control
same,T/C,[10],98 % of control
Cc1ccc(C(O)(C(F)(F)F)C(O)(c2ccc(C)cc2)C(F)(F)F)cc1 (stereo unspecified),T/C,[7],107 % of control and 100 % of control
same,T/C,[9],107 % of control and 104 % of control
same,T/C,[10],101 % of control and 105 % of control
OC1c2cccn2-c2cc(Cl)ccc2SC1c1ccccc1 (stereo unspecified),T/C,[12],99 % of control
same,T/C,[13],101 % of control
same,T/C,[14],100 % of control
CC1(C)CCCC2(C)C1CCC1(C)OC(/C(C=O)=C/C=O)CC12 (stereo unspecified),T/C,"dose: 40.0 mg/kg/injection, schedule: Q01DX009 (ip), vehicle: Klucel (hydroxypropylcellulose) (HPC)",112 % of control
same,T/C,"dose: 80.0 mg/kg/injection, schedule: Q01DX009 (ip), vehicle: Klucel (hydroxypropylcellulose) (HPC)",105 % of control
CSc1nc(SC)c2c(C)c(Br)[nH]c2n1,T/C,[15],94 % of control
same,T/C,[16],94 % of control
same,T/C,[17],89 % of control
CC(C)(C)C(=O)CC(=O)C(C)(C)C.[Cu],T/C,[18],94 % of control
same,T/C,[19],101 % of control
N#C[C@H]1C[C@@H](c2ccc([N+](=O)[O-])cc2)N(c2ccc(C=O)cc2)O1,T/C,[15],98 % of control
same,T/C,[16],98 % of control
same,T/C,[17],99 % of control
[CH3][Sn]1([CH3])[O]c2ccccc2C=NCCN=Cc2ccccc2[O]1,T/C,[5],100 % of control and 91 % of control
same,T/C,[6],106 % of control and 86 % of control
same,T/C,[8],91 % of control
same,T/C,"dose: 100.0 mg/kg/injection, schedule: Q01DX009 (ip), vehicle: saline",107 % of control
CCn1c2ccccc2c2cc(NC(N)=S)ccc21,T/C,"dose: 12.5 mg/kg/injection, schedule: Q01DX005 (ip), vehicle: saline with Tween-80",100 % of control
same,T/C,"dose: 25.0 mg/kg/injection, schedule: Q01DX005 (ip), vehicle: saline with Tween-80",102 % of control
same,T/C,[20],100 % of control and 98 % of control
O=S(=O)(NC(=S)S)c1ccccc1,T/C,"dose: 12.5 mg/kg/injection, schedule: Q01DX009 (ip), vehicle: water",102 % of control and 88 % of control and 94 % of control
same,T/C,"dose: 25.0 mg/kg/injection, schedule: Q01DX009 (ip), vehicle: water",104 % of control and 107 % of control and 94 % of control
same,T/C,"dose: 50.0 mg/kg/injection, schedule: Q01DX009 (ip), vehicle: water",102 % of control and 106 % of control and 116 % of control
same,T/C,"dose: 100.0 mg/kg/injection, schedule: Q01DX009 (ip), vehicle: water",112 % of control (2×) and 123 % of control
"CCC(=O)OC1CC=NN2C(=O)C(NC(=O)c3nc4ccc(OC)cc4cc3O)COC(=O)C(C(C)(C)O)N(C)C(=O)CN(C)C(=O)CNC(=O)C3C(OC(C)=O)CC=NN3C(=O)C(NC(=O)c3nc4ccc(OC)cc4cc3O)COC(=O)C(C(C)(C)O)N(C)C(=O)CN(C)C(=O)CNC(=O)C12 (stereo unspecified) (I: {Quinaldoyl(3-OH,6-OMe)}-S[X12]G[Sar][ξNMeVal(3-OH)] / II: {Quinaldoyl(3-OH,6-OMe)}-S[X8]G[Sar][ξNMeVal(3-OH)]; ester I:1-II:C, I:C-II:1; configuration not given here)",T/C,"dose: 20.0 micrograms/kg/injection, schedule: Q01DX005 (ip), vehicle: DMSO",106 % of control
same,T/C,"dose: 40.0 micrograms/kg/injection, schedule: Q01DX005 (ip), vehicle: DMSO",153 % of control
same,T/C,"dose: 80.0 micrograms/kg/injection, schedule: Q01DX005 (ip), vehicle: DMSO",174 % of control
same,T/C,"dose: 160.0 micrograms/kg/injection, schedule: Q01DX005 (ip), vehicle: DMSO",155 % of control
CC(=O)OCC(=O)[C@@]1(O)CC[C@H]2[C@@H]3CCC4=CC(=O)C=C[C@]4(C)[C@H]3C(=O)C[C@@]21C,T/C,"dose: 25.0 mg/kg/injection, schedule: Q04DX003 (ip), vehicle: saline with Tween-80",95 % of control
same,T/C,"dose: 50.0 mg/kg/injection, schedule: Q04DX003 (ip), vehicle: saline with Tween-80",104 % of control
same,T/C,[18],95 % of control
O=C1CC=C2C3CC4N(CCC45c4cc(O)c(O)cc4N1C25)C/C3=C\CBr (stereo unspecified),T/C,"dose: 7.5 mg/kg/injection, schedule: Q01DX005 (ip), vehicle: Klucel (hydroxypropylcellulose) (HPC)",106 % of control
same,T/C,"dose: 15.0 mg/kg/injection, schedule: Q01DX005 (ip), vehicle: Klucel (hydroxypropylcellulose) (HPC)",108 % of control
same,T/C,[11],123 % of control
O=C(N=c1nc2ccccn2s1)c1ccccc1,T/C,[7],100 % of control
same,T/C,[9],98 % of control
same,T/C,[10],104 % of control
CSc1nc(N)nc2nc[nH]c12,T/C,[18],104 % of control
same,T/C,[19],122 % of control
Cc1cc(CSCCc2nc3ccccc3[nH]2)c(O)c(CSCCc2nc3ccccc3[nH]2)c1,T/C,[12],107 % of control
same,T/C,[13],93 % of control
same,T/C,[14],90 % of control
COc1cc2c(cc1OC)C(=O)CCC2,T/C,[3],105 % of control
same,T/C,[4],100 % of control
same,T/C,[1],106 % of control
same,T/C,[2],99 % of control
O=C1CSc2nc3ccc(Cl)cc3c(=O)n21,T/C,[20],93 % of control
same,T/C,"dose: 100.0 mg/kg/injection, schedule: Q01DX005 (ip), vehicle: saline with Tween-80",101 % of control
same,T/C,"dose: 200.0 mg/kg/injection, schedule: Q01DX005 (ip), vehicle: saline with Tween-80",104 % of control
